The target of the experiment is T1, hSWS1-SWSAP1 (human Shu complex) (Homo sapiens, UniProt Q6NVH7).
T1 construct: heterodimer co-expressed in High Five insect cells (baculovirus); SWSAP1 with TEV-cleavable N-terminal 6xHis tag (cleaved), SWS1 untagged; with Zinc finger SWIM domain-containing protein 7
T1 sequence (Q6NVH7 22-250): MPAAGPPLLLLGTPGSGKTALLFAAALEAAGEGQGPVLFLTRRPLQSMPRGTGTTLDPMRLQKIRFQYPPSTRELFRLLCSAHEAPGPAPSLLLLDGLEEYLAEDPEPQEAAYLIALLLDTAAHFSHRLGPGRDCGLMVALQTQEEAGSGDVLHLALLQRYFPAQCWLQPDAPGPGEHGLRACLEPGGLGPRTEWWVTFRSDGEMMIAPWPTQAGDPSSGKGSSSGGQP
T1 sequence (Q19AV6 1-140 partner): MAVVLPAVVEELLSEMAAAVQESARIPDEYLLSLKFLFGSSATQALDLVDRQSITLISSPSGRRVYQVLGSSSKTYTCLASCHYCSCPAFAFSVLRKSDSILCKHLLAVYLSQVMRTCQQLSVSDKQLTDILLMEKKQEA
Put plainly: TNP-ATP displacement fluorescence, one-site competitive fit. The class given is binding. As to conditions: read-out: Kd^ATP; 2 μM protein; 2.5 μM TNP-ATP; no DNA; 37 °C; competitive with TNP-ATP.

By Kd is commonly meant the concentration at which binding is half-saturated.

In the case of `Nc1ncnc2c1ncn2[C@@H]1O[C@H](COP(=O)(O)OP(=O)(O)OP(=O)(O)O)[C@@H](O)[C@H]1O` [ATP], the Kd turned out to be 72.3 µM.

These data come from PMC12167799, “The role of human Shu complex in ATP-dependent regulation of RAD51 filaments during homologous recombination–associated DNA damage response” (The Journal of Biological Chemistry, 2025).
